Experimental data reported in patent publication US20240174728A1, “A USE OF A POLYPEPTIDE COMPOUND IN THE PREPARATION OF DRUGS FOR PREVENTING OR TREATING INFLAMMATORY BOWEL DISEASES AND RELATED INTESTINAL FIBROSIS” (Shenzhen Turier Biotech Co., Ltd., priority 2021, published 2024).
Starred links: 1 amine or outer side, 2 acyl side, 3 side chain; linkers in the order of their positions; H or OH if unused. Non-standard residues stand in square brackets, D forms with d. Groups on a side chain read outwards from the residue. Primed or numbered codes have the meaning given here. No end group written: not given here. *: point of attachment. C20 diacid = O=C(O)CCCCCCCCCCCCCCCCCCC(=O)*; Arachidoyl = CCCCCCCCCCCCCCCCCCCC(=O)*; γGlu = O=C(O)[C@H](CCC(=O)[*:2])N[*:1]; Iva = CC[C@](C)(N)C(=O)O; PEG2′ = not defined here; Aib = CC(C)(N)C(=O)O

Experiments:
[1] = tested on: DSS induced chronic intestinal fibrosis model of mouse; assay: DSS induced chronic intestinal fibrosis model of mouse (Example 3, three cycles); assay type: in vivo, Balb/c mice; conditions: 2% DSS 5 days then water 2 weeks, 3 cycles, 120 μg/kg s.c. once/day, compared with model group; for blue staining area of colon tissues, area ratio of blue collagen fibers to colon tissue in Masson staining (FIG. 11B): #P≤0.05, ##P≤0.01; for content of serum IL-6 (FIG. 13) / content of serum MMP-8 (FIG. 13): serum at end of three cycles
Source text: (§1) After 7 days of adaptive feeding, 114 Balb/c mice of 6-8 weeks age (purchased from Guangdong Medical Laboratory Animal Center, with weight approx. 16-20 g) are subjected to the experiment. Then randomly put the mice into 19 groups, with 6 mice in each group. The groups are normal group, model group, 6-TG group and polypeptide compound groups 1-16.
In the whole process, the normal group is given normal drinking water and is given subcutaneous injection PBS once every day. The model group is first given 2% DSS for 5 days and then given normal drinking water for 2 weeks. This is 1 cycle. The cycle is done 3 times. Subcutaneous injection of PBS is given once every day. The 6-TG group is first given 2% DSS for 5 days and then given normal drinking water for 2 weeks. This is 1 cycle. The cycle is done 3 times. 2 mg/kg 6-TG is given by the means of gavage once every day. The polypeptide compound groups 1-16 are first given 2% DSS for 5 days and then given normal drinking water for 2 weeks. This is 1 cycle. The cycle is done 3 times. Subcutaneous injection of 120 μg/kg polypeptide compounds 1-16 is given once every day.
During the administration period, the polypeptide compound groups 3, 8, 11, 12, 13 and 14 and the normal group, model group and 6-TG group are randomly selected, and the body weight, feces consistency and feces OB of the mice are recorded every day. The GraphPad Prism 8.3.0 software is used to plot the data into a diagram.
After completion of the 3rd cycle, the mice are dissected. The serums and colon tissues of the mice are collected. The colon and cecum are removed together. The colon length is measured. The GraphPad Prism 8.3.0 software is used to plot the data into a diagram.
The serums of the mice from the randomly selected polypeptide compound groups 3, 8, 11, 12, 13 and 14 and the normal group and model group of the present invention are used for cytokine test.
(§2) The colons of the mice from the randomly selected polypeptide compound groups 3, 8, 11, 12, 13 and 14 and the normal group and model group in the present invention are taken. Approx. 5 mm of intestinal segment is taken from the distal end of each colon and is fixed in 10% formalin. The specimens are fixed, dehydrated, wrapped in paraffin and sliced (5 μm). Then tissue HE staining, Masson staining and Fibronectin protein immunohistochemical staining are completed.

[2] = tested on: DSS induced acute intestinal fibrosis model of mouse; assay: DSS induced acute intestinal fibrosis model of mouse (Example 2); assay type: in vivo, Balb/c mice; conditions: 3% DSS Day 1-7, compared with model group; for content of serum IL-6 (FIG. 7) / content of serum MMP-12 (FIG. 7) / collagenous fiber of colon tissues, Masson stained slice (FIG. 4A) / colon Ly-6g+ cells (neutrophile granulocyte infiltration), immunohistochemical staining (FIG. 6) / colon mucous layer α-SMA protein expression, immunohistochemical staining (FIG. 5): 120 μg/kg s.c. once/day; for content of serum IL-6 (FIG. 7) / content of serum MMP-12 (FIG. 7): 9th day serum, ##P≤0.01; for blue staining area of colon tissues, area ratio of blue collagen fibers to colon tissue in Masson staining (FIG. 4B): #P≤0.05
Source text: The DSS in this example is purchased from MP Biomedicals (CAS No.: 9011-18-1), and the positive control compound 6-thioguanine (6-TG) is a compound based on prior art and is purchased from Shanghai Aladdin Biochemical Technology Co., Ltd. (CAS No.: 154-42-7).
as §1
Model the 19 groups of mice and administer the drug to them for 8 days. In the 8 days, the normal group is given normal drinking water and is given subcutaneous injection of PBS once every day. From Day 1 to Day 7, the model group drinks 3% DSS and is given subcutaneous injection of PBS once every day. On Day 8, 3% DSS is replaced with normal drinking water and subcutaneous injection of PBS is given once. From Day 1 to Day 7, the 6-TG group drinks 3% DSS and is given 2 mg/kg 6-TG by the means of gavage once every day. On Day 8, 3% DSS is replaced with normal drinking water and 2 mg/kg 6-TG is given by the means of gavage once. From Day 1 to Day 7, the polypeptide compound groups 1-16 drink 3% DSS and are given subcutaneous injection of 120 μg/kg polypeptide compounds 1-16 once every day. On Day 8, 3% DSS is replaced with normal drinking water and subcutaneous injection of 120 μg/kg polypeptide compounds 1-16 is given once.
In the drug administration period, the randomly selected polypeptide compound groups 3, 8, 11, 12, 13 and 14 and the normal group, model group and 6-TG group are used for testing, and the body weight, feces consistency and feces OB of the mice are recorded every day. The GraphPad Prism 8.3.0 software is used to plot the data into a diagram. Feces OB is measured by the benzidine method.
On the 9th day, all mice are killed. The serums and colon tissues of the mice are collected. The colon and cecum of the mice are removed together. The colon length is measured. The GraphPad Prism 8.3.0 software is used to plot the data into a diagram.
The serums of the mice from the randomly selected polypeptide compound groups 3, 8, 11, 12, 13 and 14 of the present invention and the normal group and model group are used for cytokine test.
as §2, with “normal group, model” for “normal”, “6-TG” for “model”, “Masson staining, α-SMA α-SMA protein immunohistochemical” for “Masson”, “Ly-6g” for “Fibronectin”

[3] = polypeptide 120 μg/kg s.c. or 6-TG 2 mg/kg p.o. once/day
[4] = polypeptide 120 μg/kg s.c. or 6-TG 2 mg/kg p.o. once/day, Day 1 to Day 8

Row | Compound | collagenous fiber of colon tissues, Masson stained slice (FIG. 11A) [1] | colon mucous layer Fibronectin protein expression, immunohistochemical staining (FIG. 12) [1] | colon tissue morphology, HE stained slice (FIG. 10) [1] | blue staining area of colon tissues, area ratio of blue collagen fibers to colon tissue in Masson staining (FIG. 11B) [1] | content of serum IL-6 (FIG. 13) [1] | content of serum MMP-8 (FIG. 13) [1] | content of serum IL-6 (FIG. 7) [2] | content of serum MMP-12 (FIG. 7) [2] | collagenous fiber of colon tissues, Masson stained slice (FIG. 4A) [2] | colon Ly-6g+ cells (neutrophile granulocyte infiltration), immunohistochemical staining (FIG. 6) [2] | colon mucous layer α-SMA protein expression, immunohistochemical staining (FIG. 5) [2] | colon tissue morphology, HE stained slice (FIG. 3) [2, 3] | blue staining area of colon tissues, area ratio of blue collagen fibers to colon tissue in Masson staining (FIG. 4B) [2, 3] | body weight (daily conditions, FIG. 2) [2, 4] | loose feces and hematochezia conditions (feces consistency and feces OB scores, FIG. 2) [2, 4]
1 | His-(D-Ser)-Gln-Gly-Thr-Phe-Thr-Ser-Asp-Lys(PEG2-PEG2-γGlu-CO(CH2)18CO2H)-Ser-Lys-Tyr-Leu-Glu-Aib-Lys-Ala-Ala-Gln-Asp-Phe-Val-Glu-Trp-Leu-Lys-Ala-Gly-Gly-Pro-Ser-Ser-Gly-Ala-Pro-Pro-Pro-Ser-NH2 (H[dS]QGTFTSDK([PEG2′-PEG2′-γGlu-C20 diacid])SKYLE[Aib]KAAQDFVEWLKAGGPSSGAPPPS-NH2) [Compound 3] | noticeably decrease | clearly decreased | become intact | noticeably decrease | clearly decreases | clearly decreases | clearly decreases | clearly decreases | noticeably decrease | clearly decrease | clearly decreased | become intact | noticeably decrease |  | 
2 | Nc1nc2nc[nH]c2c(=S)[nH]1 [Compound 6-TG, 6-thioguanine, reference compound] |  |  |  |  |  |  |  |  |  |  |  | relatively improved | not improved | decrease the body weight | noticeably improve the loose feces and hematochezia conditions
3 | His-(D-Ser)-Gln-Gly-Thr-Phe-Thr-Ser-Asp-Lys(PEG2-PEG2-γGlu-CO(CH2)18CO2H)-Ser-Lys-Tyr-Leu-Asp-Glu-Arg-Ala-Ala-Gln-Asp-Phe-Iva-Gln-Trp-Leu-Leu-Asp-Gly-Gly-Pro-Ser-Ser-Gly-Aib-Pro-Pro-Pro-Ser-NH2 (H[dS]QGTFTSDK([PEG2′-PEG2′-γGlu-C20 diacid])SKYLDERAAQDF[Iva]QWLLDGGPSSG[Aib]PPPS-NH2) [Compound 12] | noticeably decrease | clearly decreased | become intact | noticeably decrease | clearly decreases | clearly decreases | clearly decreases | clearly decreases | noticeably decrease | clearly decrease | clearly decreased | become intact | noticeably decrease |  | 
4 | His-Aib-Gln-Gly-Thr-Phe-Thr-Ser-Asp-Lys(PEG2-PEG2-CO(CH2)18CH3)-Ser-Lys-Tyr-Leu-Asp-Glu-Arg-Ala-Ala-Gln-Asp-Phe-Iva-Gln-Trp-Leu-Leu-Asp-Gly-Gly-Pro-Ser-Ser-Gly-Aib-Pro-Pro-Pro-Ser-NH2 (H[Aib]QGTFTSDK([PEG2′-PEG2′-Arachidoyl])SKYLDERAAQDF[Iva]QWLLDGGPSSG[Aib]PPPS-NH2; not fully specified; printed as His-Aib-Gln-Gly-Thr-Phe-Thr-Ser-Asp-Lys(PEG2-PEG2-CO(CH2)18CH3)-Ser-Lys-Tyr-Leu-Asp-Glu-Arg-Ala-Ala-Gln-Asp-Phe-Iva-Gln-Trp-Leu-Leu-Asp-Gly-Gly-Pro-Ser-Ser-Gly-Aib-Pro-Pro-Pro-Ser-NH2) [Compound 11] | noticeably decrease | clearly decreased | become intact | noticeably decrease | clearly decreases | clearly decreases | clearly decreases | clearly decreases | noticeably decrease | clearly decrease | clearly decreased | become intact | noticeably decrease |  | 
5 | His-(D-Ser)-Gln-Gly-Thr-Phe-Thr-Ser-Asp-Lys(Gly-Gly-Ser-Gly-Ser-Gly-γGlu-CO(CH2)18-COOH)-Ser-Lys-Tyr-Leu-Glu-Aib-Lys-Ala-Ala-Gln-Asp-Phe-Val-Glu-Trp-Leu-Lys-Ala-Gly-Gly-Pro-Ser-Ser-Gly-Ala-Pro-Pro-Pro-Ser (HXQGTFTSDKSKYLEXKAAQDFVEWLKAGGPSSGAPPPS; D-Ser, Aib, γGlu-C20 diacid lipidation; Compound 13; (2)..(2) X=D-Ser; (10)..(10) A side chain of Lys is linked to -Gly-Gly-Ser-Gly-Ser-Gly-AGlu-CO(CH2)18-COOH; (16)..(16) X=Aib) | noticeably decrease | clearly decreased | become intact | noticeably decrease | clearly decreases | clearly decreases | clearly decreases | clearly decreases | noticeably decrease | clearly decrease | clearly decreased | become intact | noticeably decrease |  | 
